Values of other authors, collected in patent US20240173254A1, “TASIPIMIDINE FORMULATIONS AND USE THEREOF” (ORION CORPORATION, priority 2021, published 2024).

Legend:
[1] = in vivo

## COc1cccc2c1CCOC2C1=NCCN1 (centres unmarked) [tasipimidine, 2-(5-methoxyisochroman-1-yl)-4,5-dihydro-1H-imidazole]
[1]
  elimination half-life (t1/2) compared with clonidine: shorter elimination half-life (t1/2) than clonidine
dogs
  relieving situational anxiety and fear triggered by noise or owner departure: effective
